This note sets out measurements from ChEMBL document CHEMBL1201862, “PubChem BioAssay data set” (2004).

Structures are written as SMILES. The source made the active and inactive calls.

One test relates to INS1. Description: INS-1E survival protection against cytokine death – cell-based, luminescence, retest, dose response (AID 449756).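 Note: cell death triggered by IL-1 beta plus TNF-alpha plus IFN-gamma mixture; protective hits raise ATP signal compared with cytokine alone wells.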 As to conditions: Rattus norvegicus. It is filed as functional.
Test [1] deals with T1, Microphthalmia-associated transcription factor (Homo sapiens, UniProt O75030).
T1 sequence (O75030 whole entry): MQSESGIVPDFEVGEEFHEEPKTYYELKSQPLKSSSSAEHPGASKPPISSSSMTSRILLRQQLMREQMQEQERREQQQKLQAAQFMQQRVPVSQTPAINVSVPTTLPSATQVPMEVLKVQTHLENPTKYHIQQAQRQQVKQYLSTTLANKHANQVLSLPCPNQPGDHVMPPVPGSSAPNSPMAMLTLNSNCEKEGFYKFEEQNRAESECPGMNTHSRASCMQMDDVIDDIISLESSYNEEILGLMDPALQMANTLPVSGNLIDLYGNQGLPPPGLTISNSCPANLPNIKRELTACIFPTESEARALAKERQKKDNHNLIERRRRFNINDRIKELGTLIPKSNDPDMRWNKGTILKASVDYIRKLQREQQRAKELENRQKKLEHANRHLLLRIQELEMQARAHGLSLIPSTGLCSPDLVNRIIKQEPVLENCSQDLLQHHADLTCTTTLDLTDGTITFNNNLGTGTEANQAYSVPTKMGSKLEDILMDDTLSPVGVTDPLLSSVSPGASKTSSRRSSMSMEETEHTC
The experiment in a line: reducers of TRPM1 reporter luminescence, concentration series – cell-based, SK-MEL-5, cherry-picked, set 3, MITF inhibitor project, dose response (AID 493073).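 Note: SK-MEL-5 melanoma cells with luciferase driven by the MITF target TRPM1 promoter.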 It is filed as functional.

Test [2] in a line: MIN6 cell viability loss – mouse insulinoma, cytotoxicity control, dose response (AID 2122).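 Note: confirmatory high-throughput counterscreen run to flag cytotoxic compounds.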 It is filed as functional.
Test [3] in a line: NIH-3T3 fibroblast cytotoxicity, dose response, cytotoxicity control, cell-based, fluorescence, Alamar Blue, secondary assay (AID 2327).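 Note: NIH-3T3 mouse fibroblasts cultured with fluconazole at 8 µg/mL.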 The format is functional. On the technique in general: The colour change of resazurin is a common sign of viable cells or microbes.
The nature of test [4]: decrease of insulin promoter-GFP reporter – imaging, high-content screening, mouse beta cells (AID 1628). It is filed as functional. As to conditions: MIN6.
Test [5] can be described thus: fluconazole-exposed Candida albicans growth modulators – fluorescence, retest, confirmation (AID 2467). It is filed as functional, cell-based.
For test [6], the system named is A-375. Description: MITF: Counter assay: A375 proliferation Measured in Cell-Based System Using Plate Reader - 2084-03_Inhibitor_Dose_DryPowder_Activity. [Related pubchem assays (depositor defined):AID488944]. It is filed as functional. Particulars: Homo sapiens.
Test [7] is described as follows: COV434 cell viability loss – plate reader, dry powder, SA7, cytotoxicity control for PAX8 inhibitor project, dose response (AID 743145). It is filed as functional, cell-based.
A short description of test [8]: PAX8-dependent cell viability loss – plate reader, dry powder, dose response (AID 743049). It is filed as functional, cell-based.
Test [9] is described as follows: viability of PTEN-deleted HCT116 cells – cell-based, HCT116 PTEN knockout, dose response (AID 1047).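 Note: HCT116 colon tumor cells with PTEN knocked out; cells exposed to compound for 60 hours before readout; potency for loss of cell viability measured by luminescence.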 It is filed as functional.
Test [10] is described as follows: PAX5 cellular inhibition readout – cell-based, plate reader, dry powder samples, selectivity assay for PAX8 inhibitor project, dose response (AID 743047).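 Note: HEK293 cells carrying a Pax5 driven CD19 promoter luciferase reporter; potency of inhibitors that lower reporter luminescence.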 The format is functional.
The nature of test [11]: inhibitors acting on PAX2 in cells – cell-based, plate reader, dry powder samples, selectivity assay for PAX8 inhibitor project, dose response (AID 743048).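 Note: HEK293 cells carrying a WT1 promoter luciferase reporter driven by expressed Pax2; potency is for inhibition of Pax2 driven reporter signal.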 It is filed as functional.
Test [12] is described as follows: A2780 cell killing – plate reader, dry powder samples, cytotoxicity control, dose response (AID 743046). The format is functional, cell-based.
The next test concerns the target Paired box protein Pax-8 (Homo sapiens, UniProt Q06710). Description: PAX8 transcriptional activity inhibition in RMG-I – RMG-I cells, luciferase, cherry-pick, dose response (AID 687027).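 Note: luciferase reporter driven by Pax8 target thyroperoxidase promoter measured by SteadyGlo luminescence.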 It is filed as functional, cell-based.
Test [13] is described as follows: OV-90 cell viability loss – plate reader, dry powder, SA8, PAX8 inhibitor project, dose response (AID 743149). The format is functional, cell-based.
Test [14] in a line: OVCAR-3 cell viability loss – plate reader, dry powder samples, PAX8 inhibitor project, dose response (AID 743044). The format is functional, cell-based.
Test [15] is described as follows: COV362 cell viability loss – plate reader, dry powder, SA12, cytotoxicity control for PAX8 inhibitor project, dose response (AID 743144). The format is functional, cell-based.
For test [16], the system named is A-375. Description: proliferation inhibition in MITF-low A375 cells – cell-based, cherry-pick samples, set 2, counter-screen for MITF modulator project, dose response (AID 540335). The format is functional. Particulars: Homo sapiens. A general note: Counterscreens check selectivity or assay interference.
Test [17] in a line: toxicity toward immortalized ovarian surface epithelium – cell-based, plate reader, dry powder samples, cytotoxicity control for PAX8 inhibitor project, dose response (AID 743045). The format is functional.
The nature of test [18]: OVCAR4 cell viability loss – plate reader, dry powder, SA11, cytotoxicity control for PAX8 inhibitor project, dose response (AID 743150). The format is functional, cell-based. As to conditions: OVCAR-4.
Test [19] in a line: viability of HCT116 lacking mutant beta-catenin – cell-based, human colon tumor, dose response (AID 1045).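 Note: HCT116 colon tumor cells with beta catenin knocked out; cells exposed to compound for 60 hours.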 It is filed as functional.
The nature of test [20]: IGROV1 cell killing – plate reader, dry powder samples, PAX8 inhibitor project, dose response (AID 743043). It is filed as functional, cell-based. Particulars: IGROV-1.
A short description of test [21]: loss of viability in HepG2 cells – cell-based, CellTiter-Glo, cherry-picked, cytotoxicity control for Shn3 inhibitor project, dose response (AID 624134). The format is functional. For orientation: ATP-based viability assays read luminescence as a measure of living cells.
The nature of test [22]: non-specific 3'UTR reporter inhibition in Clone20-Shn3RL – cell-based, Renilla luciferase, cherry-picked, counter-screen for Shn3 inhibitor project, dose response (AID 624133). The format is functional.
For a further test, the system named is Jurkat. The experiment in a line: blockers of NF-kB activation in T cells – Jurkat, luciferase reporter, luminescence, B- and T-cell, dose response (AID 489004).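 Note: NF-kB luciferase reporter Jurkat cells stimulated with PMA plus ionomycin.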 It is filed as functional, cell-based. Particulars: Homo sapiens.
Test [23] deals with Photoreceptor-specific nuclear receptor (Homo sapiens, UniProt Q9Y5X4). It is filed as functional, cell-based.
Test [24] is described as follows: reduction of Shn3 3'UTR-driven luciferase in osteoblasts – cell-based, Clone20 osteoblasts, firefly luciferase, cherry-picked, dose response (AID 624132).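 Note: firefly luciferase luminescence from reporter carrying the Shn3 3'UTR in osteoblasts.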 It is filed as functional.
The nature of test [25]: HEK-293T viability loss, compound-treated – cell-based, uHTS hits, cytotoxicity control for B/T-cell NF-kB inhibitor project, dose response (AID 489019).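 Note: IC50 reflects cytotoxicity as loss of cell viability.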 The format is functional.

The AC50 is the midpoint of the concentration-response curve, whichever way the signal moves. For orientation: IC50 means the concentration at which inhibition is half-maximal. The EC50 is the concentration needed to bring the measured effect to its halfway point.

Sequence of Photoreceptor-specific nuclear receptor (Q9Y5X4 whole entry): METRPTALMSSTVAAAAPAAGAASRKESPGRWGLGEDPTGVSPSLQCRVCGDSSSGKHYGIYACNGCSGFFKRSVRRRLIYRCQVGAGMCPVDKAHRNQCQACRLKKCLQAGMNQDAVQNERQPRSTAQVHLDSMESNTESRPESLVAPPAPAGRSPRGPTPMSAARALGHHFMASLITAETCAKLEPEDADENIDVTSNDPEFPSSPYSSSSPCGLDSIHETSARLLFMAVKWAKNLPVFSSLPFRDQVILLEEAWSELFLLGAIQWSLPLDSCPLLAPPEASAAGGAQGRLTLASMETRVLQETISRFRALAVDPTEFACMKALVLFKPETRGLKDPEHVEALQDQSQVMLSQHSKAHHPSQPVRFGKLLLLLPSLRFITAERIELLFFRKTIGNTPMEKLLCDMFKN
Sequence of Paired box protein Pax-8 (Q06710 whole entry): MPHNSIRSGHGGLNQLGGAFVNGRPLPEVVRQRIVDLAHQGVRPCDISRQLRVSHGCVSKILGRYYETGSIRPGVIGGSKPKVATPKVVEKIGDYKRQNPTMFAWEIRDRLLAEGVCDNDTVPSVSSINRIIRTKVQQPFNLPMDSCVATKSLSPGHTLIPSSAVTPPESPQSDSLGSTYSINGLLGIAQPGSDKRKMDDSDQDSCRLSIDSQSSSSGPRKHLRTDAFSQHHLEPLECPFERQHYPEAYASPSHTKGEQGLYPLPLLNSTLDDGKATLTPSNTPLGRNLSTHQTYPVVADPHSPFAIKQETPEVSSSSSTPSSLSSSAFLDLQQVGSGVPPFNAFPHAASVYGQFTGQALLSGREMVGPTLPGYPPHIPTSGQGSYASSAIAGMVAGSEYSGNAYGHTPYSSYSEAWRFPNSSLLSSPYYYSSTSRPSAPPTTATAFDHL

Turning to `COc1ccc(-c2c[n+](CC(=O)OC3CC(C)CCC3C(C)C)c3n2CCC3)cc1` (centres undefined), the results for the AC50 (with INS1; in test [1]; with A-375 [6]) were 1.78 µM (active), 4.87 µM (active) and 35 µM (active), respectively. The IC50 in [2] and in [4] was < 0.25 µM (active) throughout. Besides, the values for the EC50 in [3] and in test [5] were > 150 µM (inactive) and 0.894 µM (active), respectively.
For `COc1ccc(Br)cc1/C=C/C(=O)c1ccc(NC(C)=O)cc1`, the AC50 in [7] was 13.6 µM (active); in test [8] it was 11.7 µM (active); in test [1] it was 4.64 µM (active); in [10] it was 7.08 µM (active); in [11], 7.73 µM (active); in test [12] it was 17.6 µM (active). The AC50 on Paired box protein Pax-8 was 3.8 µM (active); in [13], 17.9 µM (active); in test [14], 8.78 µM (active); in test [15], 8.41 µM (active); in the test with A-375 [16] it was 33.2 µM (active); in test [17], 9.22 µM (active). For the same compound, the figures for the AC50 in test [18] and in test [20] were 13.7 µM (active) and 15 µM (active), respectively. The EC50 in [9] was 1.12 µM (active); in [19] it was 1.04 µM (active).
For `Cc1cc2sc3ccc(C#CC4(O)CCCCC4)cc3c(=O)c2cc1C`, the AC50 was 42 µM (active) in test [21], 25 µM (active) in [22] and < 0.26 µM (active) in test [24]. The IC50 with Jurkat is < 0.16 µM (active); in [23], 0.0182 µM (active); in [25], > 80 µM (inactive).
